Experimental data as given in patent US9717806B2, “Method for detecting cancer using ICG fluorescence method” (Osaka Prefectural Hospital Organization, priority 2008, dated 2017).

Columns and labels:
Type in all cases: in vivo, human
[1] = tested on: metastatic liver cancer; assay: Intraoperative ICG fluorescence detection of accessory lesions with infrared camera system PDE, metastatic liver cancer; details: Example 5, person; ICG 0.5 mg/kg intravenously 4 days before surgery; S4 segment of the liver; histology: adenocarcinoma, metastasis of colon cancer into the liver
Description: (§1) Now the method of detecting an accessory cancer lesion using the accessory cancer lesion detector illustrated in FIG. 1 is described. First, the fluorescent dye indocyanine green is injected intravenously. After the lapse of a certain time (typically 1 to 10 days from the intravenous injection), when excitation light 10 of a certain wavelength (760 nm for instance) is irradiated on the target organ 20 from the excitation light source unit 2, a fluorescence image 11 in the near-infrared wavelength band is emitted by the accessory cancer lesion because of the indocyanine green. Here, the optical filter 3 allows the passage of the fluorescence image 11 while cutting off the reflected light coming from the target organ 20 that is being irradiated by the excitation light 10.
The fluorescence image 11 that passes through the optical filter 3 is captured by the CCD camera used as the imager 4, and the data of the observed image is output from the CCD camera to the controller 5. The controller 5 controls the brightness and contrast of the observed image coming from the imager 4. As a result, the observed image 15 (which includes the image of the main cancer lesion) containing the accessory cancer lesion image 16 is generated. […] Furthermore, if necessary, the observed image 15 is recorded on a recording medium in the image recorder 7. […]

[2] = tested on: hepatocellular carcinoma; assay: PDE observation of cross-sections of resected, formalin-fixed liver slices after ICG injection; details: Example 4, ICG 0.5 mg/kg intravenously 1 day before surgery, 3 mm thick slices, areas diagnosed as highly differentiated HCC
Description: (§2) In the examples 1 to 5 given below, the ICG (0.5 mg/kg) was injected intravenously a few days before the surgery. In other words, in the examples 1, 2, 3, 4, and 5, the intravenous ICG injection was administered, respectively, 4, 4, 8, 1, and 4 days before the surgery. […] In examples 1 to 4, the cancer was primary liver cancer, and in Example 5 it was metastatic liver cancer.
Example 4 was a case of a person. Preoperative contrast CT detected the presence of a single HCC, 25 mm in diameter, in the S5 segment of the liver. FIG. 6A is an image showing the result of contrast CT. The arrow indicates the HCC. […] FIG. 6B is a near-infrared fluorescence intensity distribution image (measured after the abdomen was opened but before the resection) from ICG in the liver. The fluorescent area indicated by the arrow at left is the main tumor area (main lesion), and the two arrows (arrowheads) on the right indicate fluorescent areas (accessory lesions), 3 mm in diameter, observed around the main tumor. Based on the above measurements, more than one fluorescent area (accessory lesions), each 3 mm in diameter, were resected in addition to the main tumor (main lesion). Further, the resected liver was fixed in formalin and made into 3 mm thick slices (FIG. 6C and FIG. 6G), and the cross-sections observed with the PDE (FIG. 6D and FIG. 6H). […]

[3] = tested on: hepatocellular carcinoma; assay: Intraoperative ICG fluorescence detection of accessory lesions with infrared camera system PDE, primary liver cancer; details: for confirmation of HCC areas by intraoperative PDE diagnosis: identification of main tumor by intraoperative ultrasonography was difficult
Description: as §1
The fluorescence image 11 that passes through the optical filter 3 is captured by the CCD camera used as the imager 4, and the data of the observed image is output from the CCD camera to the controller 5. The controller 5 controls the brightness and contrast of the observed image coming from the imager 4. As a result, the observed image 15 (which includes the image of the main cancer lesion) containing the accessory cancer lesion image 16 is generated. […] Furthermore, if necessary, the observed image 15 is recorded on a recording medium in the image recorder 7.
as §2

CC1(C)C(/C=C/C=C/C=C/C=C2\N(CCCCS(=O)(=O)O)c3ccc4ccccc4c3C2(C)C)=[N+](CCCCS(=O)(=O)[O-])c2ccc3ccccc3c21 [ICG, indocyanine green]
diameter of fluorescent area (accessory lesion) detected apart from the two lesions identified before the surgery [1]: 5 mm | near-infrared fluorescence in cross-sections of resected liver [2]: light emission from areas where no nodule was detected macroscopically | diameter of fluorescent area (accessory lesion) detected in addition to the main tumor ([3]; Example 1, person, ICG 0.5 mg/kg intravenously 4 days before surgery, S4 segment of the liver, not detected by contrast CT, histology: highly differentiated HCC): 5 mm | diameter of fluorescent area (accessory lesion) ([3]; Example 3, person, ICG 0.5 mg/kg intravenously 8 days before surgery, S5 segment of the liver, histology: slightly less differentiated HCC than the main tumor): 5 mm | confirmation of HCC areas by intraoperative PDE diagnosis ([3]; Example 3, ICG 0.5 mg/kg intravenously 8 days before surgery): could confirm the HCC areas (main and accessory lesions) as fluorescent areas | diameter of fluorescent areas (accessory lesions) observed around the main tumor ([3]; Example 4, person, ICG 0.5 mg/kg intravenously 1 day before surgery, histology: highly differentiated HCC): 3 mm | confirmation of HCC areas by intraoperative PDE diagnosis ([3]; Example 4, ICG 0.5 mg/kg intravenously 1 day before surgery): could confirm the HCC areas (main and accessory lesions) as fluorescent areas
